Patent publication US8044100B2, “Methods and compositions for treating amyloid-related diseases” (Bellus Health Inc., priority 2004, dated 2011)

Tested on: Aβ peptides (Aβ40, Aβ42) in the plasma and brain of TgCRND8 mice
Experiment: Short term treatment (14 or 28 days) in TgCRND8 mice: Aβ levels in plasma and brain by ELISA;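 as to Aβ40 Change Insoluble: symbols grade percent change in Aβ versus untreated control with plus for increase and minus for decrease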;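 as to Aβ40 Change Soluble: symbols grade percent change in Aβ versus untreated control with plus for increase and minus for decrease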;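 as to Aβ42 Change Insoluble: symbols grade percent change in Aβ versus untreated control with plus for increase and minus for decrease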
Type: in vivo, mouse
Conditions: for Aβ40 Change / Aβ42 Change: plasma
Description: The short term therapeutic effect of 19 compounds of the invention was studied. These compounds were administered over a 14 or 28 day period at the end of which the levels of Aβ peptides in the plasma and brain of TgCRND8 animals were determined.
Male and female transgenic mice from the 3rd and 4th B6C3F1 generations were used in this example and given daily subcutaneous or oral administrations of one of a series of compounds for 14 or 28 days. The following abbreviations are used to designate these animals from the 3rd and 4th generation backcross in the present protocol: TgCRND8-2.B6C3F1(N3); TgCRND8-2.B6C3F1 (N4).
Baseline animals (Group 1) consisted of naive TgCRND8-2. B6C3F1(N3) at 11±1 weeks of age. These mice were used to determine the Aβ levels in the plasma and brain of naive transgenic animals at the initiation of treatment.
Starting at 11 weeks of age (±1 week) animals received daily administration of their respective treatment for a period of 14 or 28 days (groups 2-21), at a dose of 250 mg/kg at 10 ml/kg or of vehicle only (water; group 2) or 1% methyl cellulose only (group 21). The route of administration was subcutaneous for water-soluble compounds and oral for compounds solubilized in methylcellulose 1%. (MC 1%). At the end of the treatment periods, plasma and perfused brains were collected for quantification of Aβ levels.
At 11±1 weeks of age for the Baseline group, and at the end of the treatment period (14 or 28 days) for Groups 2 to 21, at 24 hours after the last compound administration animals were sacrificed and samples collected. An approximate blood volume of 500 μl was collected from the orbital sinus and kept on ice until centrifugation at 4° C. at a minimum speed of 3,000 rpm for 10 minutes. Plasma samples were immediately frozen and stored at −80° C. pending analysis. The brains were removed, frozen, and stored at −80° C. awaiting analysis.
Brains were weighted frozen and homogenized with 4 volumes of ice cold 50 mM Tris-Cl pH 8.0 buffer with protease inhibitor cocktail (4 mL of buffer for 1 g of wet brain). Samples were spun at 15000 g for 20 minutes and the supernatants were transferred to fresh tubes. One hundred fifty (150) μl from each supernatant were mixed with 250 μl of 8M guanidine-HCL/50 mM Tris-HCL pH 8.0 (ratio of 0.6 vol supernatant:1 vol 8M guanidium/Tris-HCL 50 mM pH8.0) and 400 μL 5 M guanidium/Tris-HCL 50 mM pH8.0 were added. The tubes were vortexed for 30 seconds and frozen at −80° C. In parallel, pellets were treated with 7 volumes of 5 M guanidine-HCL/50 mM Tris-HCL pH 8.0 (7 mL of guanidine for 1 g of wet brain), vortexed for 30 seconds and frozen at −80° C. Samples were thawed at room temperature, sonicated at 80° C. for 15 minutes and frozen again. This cycle was repeated 3 times to ensure homogeneity and samples were returned to −80° C. pending analysis.
Aβ levels were evaluated in plasma and brain samples by ELISA using Human Aβ40 and Aβ42 Fluorometric ELISA kits from Biosource (Cat. No. 89-344 and 89-348) according to manufacturer's recommended procedures. In short, samples were thawed at room temperature, sonicated for 5 minutes at 80° C. (sonication for brain homogenates; no sonication for plasma samples) and kept on ice. Aβ peptides were captured using 100 μl of the diluted samples to the plate and incubated without shaking at 4° C. overnight. The samples were aspirated and the wells were rinsed 4 times with wash buffer obtained from the Biosource ELISA kit. The anti-Aβ40 or anti-Aβ42 rabbit polyclonal antiserum (specific for the Aβ40 or Aβ42 peptide) was added (100 μl) and the plate was incubated at room temperature for 2 hours with shaking. The wells were aspirated and washed 4 times before adding 100 μl of the alkaline phosphatase labeled anti-rabbit antibody and incubating at room temperature for 2 hours with shaking. The plates were then rinsed 5 times and the fluorescent substrate (100 μl) was added to the plate. […]

[1] = brain homogenate, Day 14, vehicle group, 250 mg/kg daily
[2] = brain homogenate, Day 28, vehicle group, 250 mg/kg daily
[3] = Day 14, vehicle (water) group, 250 mg/kg daily subcutaneous
[4] = brain homogenate, Day 28, vehicle group, 250 mg/kg daily, total, not soluble/insoluble
[5] = Day 28, vehicle (water) group, 250 mg/kg daily subcutaneous
[6] = brain homogenate, Day 14, methylcellulose group, daily oral
[7] = brain homogenate, Day 28, methylcellulose group, daily oral

Compound	Aβ40 Change Insoluble [1]	Aβ42 Change Soluble [1]	Aβ40 Change Insoluble [2]	Aβ40 Change Soluble [2]	Aβ42 Change Insoluble [2]	Aβ42 Change Insoluble [1]	Aβ42 Change Soluble [2]	further results
O=S(=O)(O)CCCNC1CC2CCC1C2 (centres unmarked) [BY]	+++ (increases of 70% or higher)	+++ (increases of 70% or higher)	+++ (increases of 70% or higher)	+ (increases in the levels of Aβ (relative to untreated control) of 20 to 39%)	+++ (increases of 70% or higher)			Aβ40 Change Soluble [1]: +++ (increases of 70% or higher); Aβ40 Change [3]: + (increases in the levels of Aβ (relative to untreated control) of 20 to 39%); Aβ42 Change [3]: + (increases in the levels of Aβ (relative to untreated control) of 20 to 39%)
CCNCCCS(=O)(=O)O [CV]								Aβ40 Change (total level) (brain homogenate, Day 14, vehicle group, 250 mg/kg daily, total, not soluble/insoluble): − (Decreases in the levels of Aβ of 5 to 19%); Aβ40 Change (total level) [4]: ++ (increases of 40 to 69%); Aβ42 Change (total level) [4]: +++ (increases of 70% or higher); Aβ40 Change [3]: + (increases in the levels of Aβ (relative to untreated control) of 20 to 39%); Aβ42 Change [3]: ++ (increases of 40 to 69%); Aβ40 Change [5]: ++ (increases of 40 to 69%); Aβ42 Change [5]: ++ (increases of 40 to 69%)
CC12CC3CC(C)(C1)CC(NCCCS(=O)(=O)O)(C3)C2 [CY]								Aβ40 Change Soluble [6]: − (Decreases in the levels of Aβ of 5 to 19%); Aβ42 Change Insoluble [6]: ++ (increases of 40 to 69%); Aβ42 Change Soluble [6]: +++ (increases of 70% or higher); Aβ40 Change Insoluble [7]: +++ (increases of 70% or higher); Aβ40 Change Soluble [7]: ++ (increases of 40 to 69%); Aβ42 Change Insoluble [7]: + (increases in the levels of Aβ (relative to untreated control) of 20 to 39%); Aβ42 Change Soluble [7]: +++ (increases of 70% or higher); Aβ42 Change (Day 28, methylcellulose group, daily oral): + (increases in the levels of Aβ (relative to untreated control) of 20 to 39%)
O=S(=O)(O)CC(O)CNC1CCCCC1 (centres unmarked) [DC]	−− (decreases of 20 to 38%)	+ (increases in the levels of Aβ (relative to untreated control) of 20 to 39%)	+ (increases in the levels of Aβ (relative to untreated control) of 20 to 39%)	− (Decreases in the levels of Aβ of 5 to 19%)	+++ (increases of 70% or higher)	−− (decreases of 20 to 38%)	++ (increases of 40 to 69%)	Aβ40 Change [3]: ++ (increases of 40 to 69%); Aβ42 Change [3]: ++ (increases of 40 to 69%); Aβ40 Change [5]: ++ (increases of 40 to 69%)
CCC(CC)NCCCS(=O)(=O)O [DD]	− (Decreases in the levels of Aβ of 5 to 19%)		− (Decreases in the levels of Aβ of 5 to 19%)					
CC(C)(CO)NCCCS(=O)(=O)O [DH]	−− (decreases of 20 to 38%)	−−− (decreases of 39% or more)	− (Decreases in the levels of Aβ of 5 to 19%)		− (Decreases in the levels of Aβ of 5 to 19%)	−−− (decreases of 39% or more)		
CC(C)(NCCCS(=O)(=O)O)c1ccccc1 [DM]	+ (increases in the levels of Aβ (relative to untreated control) of 20 to 39%)	− (Decreases in the levels of Aβ of 5 to 19%)	−− (decreases of 20 to 38%)	− (Decreases in the levels of Aβ of 5 to 19%)	−− (decreases of 20 to 38%)	− (Decreases in the levels of Aβ of 5 to 19%)	−− (decreases of 20 to 38%)	
C#CC1(NCCCS(=O)(=O)O)CCCCC1 [DX]	−− (decreases of 20 to 38%)		−− (decreases of 20 to 38%)		−− (decreases of 20 to 38%)	− (Decreases in the levels of Aβ of 5 to 19%)	− (Decreases in the levels of Aβ of 5 to 19%)	
O=S(=O)(O)CCCNCC(O)c1ccccc1 (centres unmarked) [DY]	−− (decreases of 20 to 38%)		−−− (decreases of 39% or more)		−− (decreases of 20 to 38%)	−− (decreases of 20 to 38%)	− (Decreases in the levels of Aβ of 5 to 19%)	
COc1ccc([C@H](C)NCCCS(=O)(=O)O)cc1 [DZ]			−− (decreases of 20 to 38%)	− (Decreases in the levels of Aβ of 5 to 19%)	−− (decreases of 20 to 38%)	−− (decreases of 20 to 38%)	−− (decreases of 20 to 38%)	
CC1CC(NCCCS(=O)(=O)O)CC(C)(C)C1 (centres unmarked) [ED]	+ (increases in the levels of Aβ (relative to untreated control) of 20 to 39%)		−− (decreases of 20 to 38%)	− (Decreases in the levels of Aβ of 5 to 19%)	− (Decreases in the levels of Aβ of 5 to 19%)		− (Decreases in the levels of Aβ of 5 to 19%)	Aβ40 Change Soluble [1]: − (Decreases in the levels of Aβ of 5 to 19%)
COC[C@H](NCCCS(=O)(=O)O)[C@@H](O)c1ccccc1 [EG]	−− (decreases of 20 to 38%)	−− (decreases of 20 to 38%)	−− (decreases of 20 to 38%)		−− (decreases of 20 to 38%)	−− (decreases of 20 to 38%)		Aβ40 Change Soluble [1]: − (Decreases in the levels of Aβ of 5 to 19%)
